Active and inactive are the calls of the source. The rule behind the calls is not given here.
What was measured:
[1] = test system: Plasmodium yoelii nigeriensis; assay: Antimalarial activity against multi-drug resistant Plasmodium yoelii nigeriensis infected in swiss mouse model assessed as suppression of parasitemia at 96 mg/kg, IM administered for 4 days relative to control; assay type: functional; conditions: time 4 day
[2] = test system: Plasmodium yoelii nigeriensis; assay: Antimalarial activity against multi-drug resistant Plasmodium yoelii nigeriensis infected in swiss mouse model at 96 mg/kg, po administered for 4 days and measured within 6 to 8 days; assay type: functional, organism-based; conditions: time 6-8 day
[3] = test system: Plasmodium yoelii nigeriensis; assay: Antimalarial activity against multi-drug resistant Plasmodium yoelii nigeriensis infected in swiss mouse model assessed as suppression of parasitemia at 96 mg/kg, po administered for 4 days relative to control; assay type: functional; conditions: time 4 day
[4] = test system: Plasmodium yoelii nigeriensis; assay: Antimalarial activity against multi-drug resistant Plasmodium yoelii nigeriensis infected in swiss mouse model assessed as animal survival at 96 mg/kg, po administered for 4 days and measured after 28 days; assay type: functional; conditions: time 28 day
[5] = test system: Plasmodium yoelii nigeriensis; assay: Antimalarial activity against multi-drug resistant Plasmodium yoelii nigeriensis infected in swiss mouse model at 96 mg/kg, IM administered for 4 days and measured within 6 to 8 days; assay type: functional, organism-based; conditions: time 6-8 day
[6] = test system: Plasmodium yoelii nigeriensis; assay: Antimalarial activity against multi-drug resistant Plasmodium yoelii nigeriensis infected in swiss mouse model assessed as suppression of parasitemia at 48 mg/kg, po administered for 4 days relative to control; assay type: functional; conditions: time 4 day
[7] = test system: Plasmodium yoelii nigeriensis; assay: Antimalarial activity against multi-drug resistant Plasmodium yoelii nigeriensis infected in swiss mouse model assessed as suppression of parasitemia at 48 mg/kg, IM administered for 4 days relative to control; assay type: functional; conditions: time 4 day
[8] = test system: Plasmodium yoelii nigeriensis; assay: Antimalarial activity against multi-drug resistant Plasmodium yoelii nigeriensis infected in swiss mouse model at 48 mg/kg, IM administered for 4 days and measured within 6 to 8 days; assay type: functional, organism-based; conditions: time 6-8 day
[9] = test system: Plasmodium yoelii nigeriensis; assay: Antimalarial activity against multi-drug resistant Plasmodium yoelii nigeriensis infected in swiss mouse model assessed as suppression of parasitemia at 24 mg/kg, IM administered for 4 days relative to control; assay type: functional; conditions: time 4 day
[10] = test system: Plasmodium yoelii nigeriensis; assay: Antimalarial activity against multi-drug resistant Plasmodium yoelii nigeriensis infected in swiss mouse model assessed as animal survival at 48 mg/kg, IM administered for 4 days and measured after 28 days; assay type: functional; conditions: time 28 day
[11] = test system: Plasmodium yoelii nigeriensis; assay: Antimalarial activity against multi-drug resistant Plasmodium yoelii nigeriensis infected in swiss mouse model assessed as animal survival at 96 mg/kg, IM administered for 4 days and measured after 28 days; assay type: functional; conditions: time 28 day
[12] = test system: Plasmodium yoelii nigeriensis; assay: Antimalarial activity against multi-drug resistant Plasmodium yoelii nigeriensis infected in swiss mouse model assessed as suppression of parasitemia at 24 mg/kg, po administered for 4 days relative to control; assay type: functional; conditions: time 4 day
[13] = test system: Plasmodium yoelii nigeriensis; assay: Antimalarial activity against multi-drug resistant Plasmodium yoelii nigeriensis infected in swiss mouse model at 48 mg/kg, po administered for 4 days and measured within 6 to 8 days; assay type: functional, organism-based; conditions: time 6-8 day
[14] = test system: Plasmodium yoelii nigeriensis; assay: Antimalarial activity against multi-drug resistant Plasmodium yoelii nigeriensis infected in swiss mouse model assessed as suppression of parasitemia by measuring fold change at 48 mg/kg, po administered for 4 days relative to artemisinin; assay type: functional; conditions: time 4 day

SMILES	Activity [1]	Activity [2]	Activity [3]	Activity [5]	Activity [6]	further results
C=C(c1ccc(OC(C)(C)CO)cc1)C1COC2(CCCCC2)OO1 (stereo not drawn)	100%	inactive	68%			
C=C(c1ccc(OC(C)(C)CNc2ccc(C(F)(F)F)cc2)cc1)C1COC2(CCCC2)OO1 (stereo not drawn)	65%	Active	100%	inactive	100%	Survival [4]: >28 days
C[C@@H]1CC[C@H]2[C@@H](C)C(=O)O[C@@H]3O[C@@]4(C)CC[C@@H]1[C@]32OO4 [ARTEMISININ]		inactive	100%			Activity [7]: 100%; Activity [8]: Active; Activity [9]: 100%
C=C(c1ccc(OC(C)(C)CNc2ccc(Br)cc2)cc1)C1COC2(CCCCC2)OO1 (stereo not drawn)	100%	Active	100%			Survival [4]: >28 days
C=C(c1ccc(OC(C)(C)CO)cc1)C1COC2(CCC(Nc3ccc(Br)cc3)CC2)OO1 (stereo not drawn)	100%	inactive	100%	Active		Survival [10]: >28 days; Activity [7]: 100%; Activity [8]: Active; Survival [11]: >28 days
C=C(c1ccc(OC(C)(C)CO)cc1)C1COC2(OO1)C1CC3CC(C1)CC2C3 (stereo not drawn)	100%	Active	100%	Active	100%	Activity [7]: 100%; Activity [8]: Active
C=C(c1ccc(OC(C)(C)CNc2ccc(C)cc2)cc1)C1COC2(CCCCC2)OO1 (stereo not drawn)	99%		100%			
C=C(c1ccc(OC(C)(C)CNc2ccc(F)cc2)cc1)C1COC2(OO1)C1CC3CC(C1)CC2C3 (stereo not drawn)		Active	100%		100%	Activity [12]: 100%; Activity [13]: Active; fold change (FC) [14]: 2
C=C(c1ccc(OC(C)(C)CNc2ccccc2)cc1)C1COC2(OO1)C1CC3CC(C1)CC2C3 (stereo not drawn)		Active	100%		100%	Activity [12]: 100%; Activity [13]: Active; fold change (FC) [14]: 2
C=C(c1ccc(OC(C)(C)CNc2cc(Cl)cc(Cl)c2)cc1)C1COC2(CCCC2)OO1 (stereo not drawn)		Active	100%		100%	Survival [4]: >28 days
C=C(c1ccc(OC(C)(C)CO)cc1)C1COC2(CCC(=O)CC2)OO1 (stereo not drawn)	53%	inactive	60%	inactive		
C=C(c1ccc(OC(C)(C)CO)cc1)C1COC2(CCCC2)OO1 (stereo not drawn)	98%	inactive	53%			

Source: ChEMBL document CHEMBL5584209, “Novel amino- and hydroxy-functionalized 1,2,4-trioxanes and their antimalarial activity against multidrug-resistant Plasmodium yoelii nigeriensis in Swiss mice via intramuscular and oral route” (2024)
